Tests used:
[1] = Selectivity index was evaluated by antineoplastic activity against HT-29 cells and compared with cytotoxicity against normal cells; format: functional
SK-MEL-28 = test: Antineoplastic activity against MEL-28 human melanoma carcinoma cell cultures; format: functional, cell-based
A549 = test: Antineoplastic activity against A-549 (human lung carcinoma) cell line.; format: functional, cell-based
HT-29 = test: Antineoplastic activity against HT-29 (human colon carcinoma) cell line.; format: functional, cell-based
P388 = test: Antineoplastic activity against P-388 (murine leukemia) cell line.; format: functional, cell-based; conditions: Mus musculus
CV-1 = test: Antineoplastic activity against CV-1 (monkey kidney fibroblast) cell line.; format: functional, cell-based, Cercopithecidae; conditions: Chlorocebus aethiops

| Structure (SMILES) | Selectivity index [1] | IC50 (SK-MEL-28) [nM] | IC50 (A549) [nM] | IC50 (HT-29) [nM] | IC50 (P388) [nM] | IC50 (CV-1) [nM] |
| --- | --- | --- | --- | --- | --- | --- |
| COC(=O)[C@@H]1C(/C=N/Nc2ccccc2)=Cc2cc3c(cc2[C@H]1c1cc(OC)c(OC)c(OC)c1)OCO3 | 50 | 4840 | 970 | 39 | 1940 | 1940 |
| COc1cc([C@@H]2c3cc4c(cc3C=C(/C=N/Nc3ccccc3)[C@H]2CO)OCO4)cc(OC)c1OC | – | 510 | 1020 | 2050 | 1020 | 1020 |
| COC(=O)[C@H]1[C@H](c2cc(OC)c(OC)c(OC)c2)c2cc3c(cc2C(=O)[C@H]1CO)OCO3 | – | 5630 | 5630 | 5630 | 5630 | 5630 |
| COC(=O)[C@H]1[C@H](c2cc(OC)c(OC)c(OC)c2)c2cc3c(cc2[C@H](O)[C@H]1CO)OCO3 | – | – | 220 | 450 | 220 | 450 |
| CO/N=C/[C@@H]1Cc2cc3c(cc2[C@@H](c2cc(OC)c(OC)c(OC)c2)[C@@H]1C(=O)OC)OCO3 | – | > 21900 | 21900 | > 21900 | 10900 | > 21900 |
| COC(=O)[C@@H]1C(/C=N/N)=Cc2cc3c(cc2[C@H]1c1cc(OC)c(OC)c(OC)c1)OCO3 | – | 1140 | 570 | 570 | 570 | 2270 |
| CO/N=C/C1=Cc2cc3c(cc2[C@@H](c2cc(OC)c(OC)c(OC)c2)[C@@H]1C(=O)OC)OCO3 | – | 220 | 220 | 220 | 220 | 220 |
| COC(=O)[C@@H]1[C@H](CO)Cc2cc3c(cc2[C@H]1c1cc(OC)c(OC)c(OC)c1)OCO3 | – | 58 | 58 | 120 | 58 | 58 |
| COC(=O)[C@@H]1[C@H](COC(C)=O)Cc2cc3c(cc2[C@H]1c1cc(OC)c(OC)c(OC)c1)OCO3 | – | 210 | 210 | 210 | 210 | 210 |
| COc1cc([C@@H]2c3cc4c(cc3C=C(C=O)[C@H]2CO)OCO4)cc(OC)c1OC | – | 250 | 250 | 250 | 250 | 630 |
| COC(=O)[C@@H]1C(/C=N/O)=Cc2cc3c(cc2[C@H]1c1cc(OC)c(OC)c(OC)c1)OCO3 | – | 2270 | 2270 | 2270 | 2270 | 2270 |
| COC(=O)[C@H]1[C@H](c2cc(OC)c(OC)c(OC)c2)c2cc3c(cc2C[C@H]1C=O)OCO3 | – | 2340 | 2340 | 2340 | 2340 | 2340 |
| COC(=O)[C@H]1[C@H](c2cc(OC)c(OC)c(OC)c2)c2cc3c(cc2[C@H](OC(C)=O)[C@H]1COC(C)=O)OCO3 | – | – | 1100 | 1100 | 1100 | 1100 |
| COC(=O)[C@@H]1C(/C=N/NCC(F)(F)F)=Cc2cc3c(cc2[C@H]1c1cc(OC)c(OC)c(OC)c1)OCO3 | 10 | 480 | 190 | 48 | 480 | 480 |
| COc1cc([C@@H]2c3cc4c(cc3C[C@H]3COC(=O)[C@@H]32)OCO4)cc(OC)c1OC [DESOXYPODOPHYLLOTOXIN] | – | – | < 6 | 6 | 10 | 6 |
| COc1cc([C@@H]2c3cc4c(cc3C(=O)[C@H]3COC(=O)[C@@H]23)OCO4)cc(OC)c1OC [PICROPODOPHYLLONE] | – | – | 12000 | 12000 | 12000 | 48000 |
| COc1cc([C@@H]2c3cc4c(cc3[C@H](O)[C@H]3COC(=O)[C@H]23)OCO4)cc(OC)c1OC [PODOFILOX] | – | – | 12 | 29 | 12 | 29 |
| COC(=O)[C@@H]1C(C=O)=Cc2cc3c(cc2[C@H]1c1cc(OC)c(OC)c(OC)c1)OCO3 [PODOPHYLLIC ALDEHYDE] | 20 | 230 | 120 | 12 | 230 | 230 |
